How the values were obtained:
GPR40 KO mice = experiment: OGTT in GPR40 KO mice; type: in vivo, mouse; conditions: high dose of compound 1
Procedure: Eight to thirteen week old male C57BL/6 or KO mice were used. The day before the study, at 1600 hours, animals were transferred into clean cages and food was removed. The following morning (~0800 hours), mice were randomized by block randomization to treatment groups (N = 5–7 per group) so each group had similar mean and standard deviation of body weight and blood glucose. […] Animals were dosed with vehicle (0.5% MC/0.25% Tween-80) or the test article by oral gavage. Group allocations were not blinded from the experimenters who collected the data. After 60 min compound treatment animals were then given an oral gavage of glucose (2 g/kg). At 0, 15, 30, 60, and 120 min post oral glucose, two glucose readings via glucometers were obtained. The average of two glucose readings was reported at each time point. Data were expressed as mean±standard error (s.e.m.). Blood glucose values were analyzed using ANOVA with repeated measures. Cook’s distance was also calculated from linear regression. All animals were included in the analysis with their individual averaged Cook’s distance < 1. Dunnett’s comparison was performed at each time point by R program. Significance is denoted at p < 0.05.

human GPR40 = target: T1, human GPR40 (Homo sapiens, UniProt O14842); experiment: Human GPR40 b-arrestin; type: cell-based
T1 construct: HEK293 cells stably overexpressing full length human GPR40; expressed in transfected cells

hRORgamma = hRORgamma (Homo sapiens, UniProt P51449); experiment: hRORgamma binding
hERalpha = hERalpha (Homo sapiens, UniProt P03372); experiment: hERalpha binding
hD1 = hD1 (Homo sapiens, UniProt P21728); experiment: hD1 cAMP; type: cell-based; conditions: read-out: hD1 cAMP Rel EC50
hNav1.7 = hNav1.7 (Homo sapiens, UniProt Q15858); experiment: hNav1.7 binding; conditions: read-out: hNav1.7 binding Rel IC50
Dog hepatocyte clearance = type: in vitro ADME; conditions: hepatocytes
[1] = Human hepatocyte clearance; type: in vitro ADME; conditions: hepatocytes
[2] = Drug exposure in plasma after oral dose in wild type C57BL/6 mice; type: in vivo, mouse; conditions: 0.03-10 mpk, Supplementary Fig. 9
GPR40 Y114F = GPR40 Y114F (Homo sapiens, UniProt O14842, Y114F); experiment: cAMP accumulation assay, Y114F mutant
Procedure: (§1) HEK293 cells transiently transfected with Promega’s cAMP response element (CRE/luc2P) and a GPR40 construct were plated (40K cells/well) into 96-well microtiter plates using Dulbecco’s Modified Eagle’s Medium (DMEM) supplemented with 10% FBS, 20 mM HEPES, pH 7.4, 100 U/mL Penicillin, 100 µg/mL Streptomycin, and 800 µg/mL Geneticin. Test compounds were serially diluted three-fold in 100% DMSO and immediately diluted in media. […] EC50 values were calculated using a four-parameter logistic curve fitting equation.

GPR40 S123A = GPR40 S123A (Homo sapiens, UniProt O14842, S123A); experiment: cAMP accumulation assay, S123A mutant
Chain of GPR40 S123A (O14842 whole entry S123A): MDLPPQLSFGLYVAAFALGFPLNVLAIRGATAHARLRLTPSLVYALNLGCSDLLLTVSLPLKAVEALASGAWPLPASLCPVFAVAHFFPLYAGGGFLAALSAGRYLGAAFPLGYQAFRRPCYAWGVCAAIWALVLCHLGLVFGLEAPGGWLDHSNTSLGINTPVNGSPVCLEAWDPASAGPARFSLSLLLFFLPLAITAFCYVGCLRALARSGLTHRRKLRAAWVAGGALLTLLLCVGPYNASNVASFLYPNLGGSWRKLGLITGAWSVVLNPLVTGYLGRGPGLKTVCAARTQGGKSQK
Procedure: as §1

T1 sequence (O14842 whole entry): as the sequence (O14842 whole entry S123A) above, with A123S counted along it
Chain of GPR40 Y114F (O14842 whole entry Y114F): as the sequence (O14842 whole entry S123A) above, with Y114F, A123S counted along it
Chain of hERalpha (P03372 whole entry): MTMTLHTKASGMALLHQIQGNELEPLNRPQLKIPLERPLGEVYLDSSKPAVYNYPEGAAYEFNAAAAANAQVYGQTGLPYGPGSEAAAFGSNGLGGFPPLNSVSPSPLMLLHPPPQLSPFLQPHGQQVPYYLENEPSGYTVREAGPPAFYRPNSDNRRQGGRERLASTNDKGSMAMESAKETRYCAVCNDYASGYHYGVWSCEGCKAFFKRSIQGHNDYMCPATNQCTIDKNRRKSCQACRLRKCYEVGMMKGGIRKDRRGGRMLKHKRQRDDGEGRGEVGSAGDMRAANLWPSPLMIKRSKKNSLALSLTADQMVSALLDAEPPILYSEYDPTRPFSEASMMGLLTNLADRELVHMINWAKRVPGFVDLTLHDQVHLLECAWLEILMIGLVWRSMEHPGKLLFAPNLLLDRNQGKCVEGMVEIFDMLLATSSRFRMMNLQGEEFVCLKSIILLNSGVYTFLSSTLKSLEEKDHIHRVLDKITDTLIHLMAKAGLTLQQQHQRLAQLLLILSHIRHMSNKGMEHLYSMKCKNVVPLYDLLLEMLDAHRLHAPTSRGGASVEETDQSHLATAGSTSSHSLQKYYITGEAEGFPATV
Chain of hD1 (P21728 whole entry): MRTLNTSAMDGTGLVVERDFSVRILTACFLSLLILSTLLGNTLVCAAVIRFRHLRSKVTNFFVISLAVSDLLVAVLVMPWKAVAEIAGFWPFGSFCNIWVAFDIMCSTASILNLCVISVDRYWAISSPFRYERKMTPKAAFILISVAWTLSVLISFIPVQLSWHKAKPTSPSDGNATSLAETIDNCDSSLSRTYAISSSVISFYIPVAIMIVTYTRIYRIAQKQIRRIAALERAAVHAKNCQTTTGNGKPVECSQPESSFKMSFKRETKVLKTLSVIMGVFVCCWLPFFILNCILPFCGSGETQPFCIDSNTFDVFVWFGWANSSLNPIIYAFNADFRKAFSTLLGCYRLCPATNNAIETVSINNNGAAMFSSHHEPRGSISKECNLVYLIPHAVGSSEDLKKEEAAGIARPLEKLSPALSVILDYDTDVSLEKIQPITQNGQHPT
Chain of hRORgamma (P51449 whole entry): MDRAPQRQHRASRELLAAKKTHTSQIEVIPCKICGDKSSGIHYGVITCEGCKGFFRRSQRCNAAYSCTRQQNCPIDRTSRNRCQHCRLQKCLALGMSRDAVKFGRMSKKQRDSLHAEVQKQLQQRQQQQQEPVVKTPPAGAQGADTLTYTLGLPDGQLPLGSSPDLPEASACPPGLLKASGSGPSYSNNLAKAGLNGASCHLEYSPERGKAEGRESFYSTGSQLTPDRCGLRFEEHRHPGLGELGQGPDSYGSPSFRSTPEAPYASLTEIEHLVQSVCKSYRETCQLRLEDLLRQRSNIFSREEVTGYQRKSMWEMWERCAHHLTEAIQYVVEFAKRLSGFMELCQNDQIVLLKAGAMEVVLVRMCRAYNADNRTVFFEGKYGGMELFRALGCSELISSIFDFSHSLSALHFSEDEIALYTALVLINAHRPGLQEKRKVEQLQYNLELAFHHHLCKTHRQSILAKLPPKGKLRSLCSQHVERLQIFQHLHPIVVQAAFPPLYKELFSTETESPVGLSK
Chain of hNav1.7 (Q15858 whole entry): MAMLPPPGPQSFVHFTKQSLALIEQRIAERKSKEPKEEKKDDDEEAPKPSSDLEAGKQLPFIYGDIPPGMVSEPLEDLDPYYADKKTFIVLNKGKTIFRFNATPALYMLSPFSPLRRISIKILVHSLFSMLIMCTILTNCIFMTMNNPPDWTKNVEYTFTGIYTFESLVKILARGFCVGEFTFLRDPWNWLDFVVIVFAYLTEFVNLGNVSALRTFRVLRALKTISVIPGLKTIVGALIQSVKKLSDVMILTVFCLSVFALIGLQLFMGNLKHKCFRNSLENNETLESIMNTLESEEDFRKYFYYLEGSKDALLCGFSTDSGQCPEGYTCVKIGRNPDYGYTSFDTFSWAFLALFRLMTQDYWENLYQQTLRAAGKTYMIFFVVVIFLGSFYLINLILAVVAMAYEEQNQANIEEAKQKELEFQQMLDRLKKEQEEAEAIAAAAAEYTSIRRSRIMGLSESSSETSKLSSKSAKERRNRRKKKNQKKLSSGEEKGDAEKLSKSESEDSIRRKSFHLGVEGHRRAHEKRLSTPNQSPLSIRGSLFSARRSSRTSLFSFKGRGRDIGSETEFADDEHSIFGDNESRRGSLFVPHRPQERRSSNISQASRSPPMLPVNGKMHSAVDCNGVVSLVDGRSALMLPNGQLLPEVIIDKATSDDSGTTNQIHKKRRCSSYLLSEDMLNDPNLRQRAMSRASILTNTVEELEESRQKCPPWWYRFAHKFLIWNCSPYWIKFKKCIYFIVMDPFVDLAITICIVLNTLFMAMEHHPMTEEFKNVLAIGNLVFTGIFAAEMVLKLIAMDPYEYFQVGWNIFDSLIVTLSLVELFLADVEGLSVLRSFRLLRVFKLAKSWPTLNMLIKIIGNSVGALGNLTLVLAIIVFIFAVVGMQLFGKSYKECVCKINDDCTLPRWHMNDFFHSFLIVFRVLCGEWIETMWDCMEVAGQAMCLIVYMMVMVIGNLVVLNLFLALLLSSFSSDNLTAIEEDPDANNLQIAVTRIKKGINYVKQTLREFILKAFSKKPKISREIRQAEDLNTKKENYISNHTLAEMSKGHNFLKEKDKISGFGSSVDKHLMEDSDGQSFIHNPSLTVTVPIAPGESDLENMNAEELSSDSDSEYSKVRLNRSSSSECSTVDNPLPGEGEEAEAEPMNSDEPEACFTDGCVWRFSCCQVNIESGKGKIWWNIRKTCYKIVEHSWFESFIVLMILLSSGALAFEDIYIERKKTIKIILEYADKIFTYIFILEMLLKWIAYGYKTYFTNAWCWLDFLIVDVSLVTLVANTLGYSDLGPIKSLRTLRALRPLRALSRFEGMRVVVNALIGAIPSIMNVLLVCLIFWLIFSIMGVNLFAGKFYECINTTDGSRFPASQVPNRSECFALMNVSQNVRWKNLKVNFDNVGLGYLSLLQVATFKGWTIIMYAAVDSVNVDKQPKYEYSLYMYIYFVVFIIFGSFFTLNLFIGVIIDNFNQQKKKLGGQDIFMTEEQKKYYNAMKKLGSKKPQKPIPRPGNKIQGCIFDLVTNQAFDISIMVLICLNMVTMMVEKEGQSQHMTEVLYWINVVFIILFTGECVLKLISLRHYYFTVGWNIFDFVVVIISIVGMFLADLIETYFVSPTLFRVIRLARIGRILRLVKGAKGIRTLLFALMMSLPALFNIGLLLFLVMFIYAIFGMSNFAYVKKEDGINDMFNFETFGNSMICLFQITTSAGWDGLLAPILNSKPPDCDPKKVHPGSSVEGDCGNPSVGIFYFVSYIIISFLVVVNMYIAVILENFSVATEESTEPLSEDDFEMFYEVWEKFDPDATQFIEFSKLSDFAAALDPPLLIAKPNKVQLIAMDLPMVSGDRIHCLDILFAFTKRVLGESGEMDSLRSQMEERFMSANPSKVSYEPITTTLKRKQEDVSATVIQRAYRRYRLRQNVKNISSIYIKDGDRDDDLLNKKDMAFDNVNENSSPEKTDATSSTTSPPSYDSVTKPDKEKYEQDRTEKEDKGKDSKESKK

With `COc1ccc(C(=O)N(CC(C)(C)C)c2cccc(C)n2)c(N2CCC(c3cc4ccc([C@@H](CC(=O)O)C5CC5)cc4o3)CC2)c1` [compound 1] as the molecule, how does the “blood glucose in OGTT, GPR40 KO” value (GPR40 KO mice) read?
The value was “No change in blood glucose”.

And the EC50 (human GPR40)?
Its EC50 is 0.0019 µM.

What about the Emax (human GPR40) of the same molecule?
The Emax was 172%.

And the Ki (hRORgamma)?
The Ki was greater than 20 µM.

What about the Ki (hERalpha) of the same molecule?
The Ki was greater than 11 µM.

What about the EC50 (hD1) of the same molecule?
The EC50 was greater than 80 µM.

And the IC50 (hNav1.7)?
Its IC50 is greater than 30 µM.

What about the recovery (Dog hepatocyte clearance; no ABT, read-out: Dog Hepatocyte Clearance no ABT % Recovery) of the same molecule?
The recovery was 103%.

What about the hepatocyte CLint (Dog hepatocyte clearance; no ABT, read-out: Dog Hepatocyte Clearance no ABT Intrinsic Clearance) of the same molecule?
The hepatocyte CLint was 31.4 µL/min/1e6 cells.

And the recovery (Dog hepatocyte clearance; with ABT (concentration not stated), read-out: Dog Hepatocyte Clearance ABT % Recovery)?
The recovery was 92.8%.

What about the hepatocyte CLint (Dog hepatocyte clearance; with ABT, read-out: Dog Hepatocyte Clearance ABT Intrinsic Clearance) of the same molecule?
The hepatocyte CLint was 19.3 µL/min/1e6 cells.

And the recovery ([1]; no ABT, read-out: Human Hepatocyte Clearance no ABT % Recovery)?
The recovery was 103%.

What about the hepatocyte CLint ([1]; no ABT, read-out: Human Hepatocyte Clearance no ABT Intrinsic Clearance) of the same molecule?
The hepatocyte CLint was 8.8 µL/min/1e6 cells.

What about the recovery ([1]; with ABT (concentration not stated), read-out: Human Hepatocyte Clearance ABT % Recovery) of the same molecule?
The recovery was 92.8%.

And the hepatocyte CLint ([1]; with ABT, read-out: Human Hepatocyte Clearance ABT Intrinsic Clearance)?
Its hepatocyte CLint is less than 1.8 µL/min/1e6 cells.

What about the “pharmacokinetics in mouse (drug exposures in plasma)” value [2] of the same molecule?
The value was “dose proportional”.

What about the EC50 (GPR40 Y114F) of the same molecule?
Its EC50 is 11 µM.

What about the EC50 (GPR40 S123A) of the same molecule?
Its EC50 is greater than 30 µM.

From paper PMC5917010, “Structural basis for GPR40 allosteric agonism and incretin stimulation” (Nature Communications, 2018)
